Data as given in paper PMC11768629, “Potential Interaction of Pinocembrin with Drug Transporters and Hepatic Drug-Metabolizing Enzymes” (Pharmaceuticals, 2025).

Assays:
CYP2D6 = system: CYP2D6; design: method as in PMID 34069400, doi:10.5562/cca3652, PMID 26626242; details: cited from earlier work
hOAT3-MDCK cells = assay: Cell viability assay (MTT) in hOAT3-MDCK cells; format: cell-based, canine; details: pinocembrin 1, 10 and 50 μM, compared to vehicle-treated cells
Experimental: (§1) The hOAT1-MDCK cells and hOAT3-MDCK cells were treated with 1, 10, and 50 μM pinocembrin for 24 h, followed by a measurement of ^3H-PAH and ^3H-estrone sulfate cellular accumulation. […] The inhibitory effect of pinocembrin occurred in a concentration-dependent manner.
(§2) We determined whether the inhibitory effect of pinocembrin on hOAT1 and hOAT3. We studied whether pinocembrin could reduce the renal toxicity of tenofovir, a substrate of hOAT1 and hOAT3 known for inducing renal tubular dysfunction.
(§3) The confluent cells in 96-well plates were treated with pinocembrin for 48 h at 37 °C. After that, the cells were incubated with 0.5 mg/mL MTT solution for four hours. The MTT solution was removed, and DMSO (100 µL) was added to dissolve the crystal formazan. The formazan content was detected at a wavelength of 570 nm using a microplate reader. Cell viability was reported as a percentage of the vehicle-treated cells.

hOAT1 = target: T1, hOAT1 (Homo sapiens, UniProt Q4U2R8); assay: Cis-inhibition assay, 3H-PAH uptake in hOAT1-MDCK cells; format: cell-based; details: 10 µM pinocembrin, compared with vehicle control
T1 construct: host or cells: MDCK
T1 sequence (Q4U2R8 1-563): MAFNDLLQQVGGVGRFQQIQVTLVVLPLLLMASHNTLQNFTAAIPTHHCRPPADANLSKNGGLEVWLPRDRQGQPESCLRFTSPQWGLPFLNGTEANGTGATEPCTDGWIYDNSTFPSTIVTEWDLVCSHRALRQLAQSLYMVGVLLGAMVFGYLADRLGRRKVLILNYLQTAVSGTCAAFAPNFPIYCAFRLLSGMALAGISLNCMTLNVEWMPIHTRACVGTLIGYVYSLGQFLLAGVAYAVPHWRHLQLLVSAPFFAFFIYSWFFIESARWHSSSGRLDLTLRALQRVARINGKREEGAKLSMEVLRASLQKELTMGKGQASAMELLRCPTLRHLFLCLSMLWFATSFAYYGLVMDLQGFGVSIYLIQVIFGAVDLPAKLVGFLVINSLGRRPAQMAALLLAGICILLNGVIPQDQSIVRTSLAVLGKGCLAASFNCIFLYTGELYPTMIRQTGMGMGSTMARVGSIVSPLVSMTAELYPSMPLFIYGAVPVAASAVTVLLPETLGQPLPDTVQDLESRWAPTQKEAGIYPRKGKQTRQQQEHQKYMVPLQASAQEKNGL
Experimental: Next, the effects of pinocembrin on the transport function of renal drug transporters, including hOAT1, hOAT3, hOCT1, hOCT2, hMATE1, and hMATE2, were determined.
A cell monolayer comprising hOAT1-MDCK, hOAT3-MDCK, hOCT1-CHO-K1, hOCT2-CHO-K1, hMATE1-CHO-K1, hMATE2-CHO-K1, and mock cells were utilized for the uptake experiments. The cells were washed three times with a buffer containing (in mM) 140 NaCl, 5 KCl, 0.4 MgSO4, 0.5 MgCl2, 1 CaCl2, 0.3 Na2HPO4, 0.4 KH2PO4, 6 D-glucose, and 4 NaHCO3 at pH 7.4 and incubated at 37 °C for 15 min. After incubation, the hOAT1-MDCK and hOAT3-MDCK cells were incubated for 10 min with ^3H-PAH and ^3H-estrone sulfate, a substrate of hOAT1 and hOAT3, respectively. The hOCT1-CHO-K1 and hOCT2-CHO-K1 cells were incubated with ^3H-MPP^+, a substrate of OCT1 and OCT2, for five minutes. The functions of MATE1 and MATE2 were determined by incubating the hMATE1-CHO-K1 and hMATE2-CHO-K1 cells with a buffer containing ^3H-MPP^+, a substrate of MATE1 and MATE2, at pH 8.5 for five minutes. The cells were washed three times with an ice-cold buffer to stop the transport function. The cells were lyzed with 0.4 N NaOH for at least four hours. The samples were collected and transferred to vials containing a liquid scintillation cocktail to measure radioactivity by a β-counter (Packard BioScience, Wellesley, MA, USA). […]

CYP2C9 = target: T2, CYP2C9 (Homo sapiens, UniProt P11712); assay: Cell-free CYP450 inhibition assay, CYP2C9; format: biochemical; details: cell-free fluorescent probe assay, BACULOSOMES
T2 construct: purchased Life Technologies
Experimental: (§4) To determine whether pinocembrin influences the catalytic activity of CYP450 enzymes, fluorescent probe reaction assays were performed using varying concentrations of pinocembrin. […] In addition, molecular docking was conducted to better understand the binding mode and interactions between pinocembrin and human CYP2C19.
(§5) The CYP450 inhibitory activity of pinocembrin was determined using a P450 screening kit (Life Technologies; Carlsbad, CA, USA). Varied concentrations of pinocembrin were prepared in methanol. […] The fluorescence intensities were monitored every minute for 60 min at room temperature. The percentage of inhibition was calculated according to the following equation: % Inhibition=(1−X−B/A−B)×100% where X is the fluorescence intensity observed in the presence of pinocembrin.

CYP1A2 = details: cited from earlier work
CYP2B6 = target: T3, CYP2B6 (Homo sapiens, UniProt P20813); assay: Cell-free CYP450 inhibition assay, CYP2B6; format: biochemical; details: cell-free fluorescent probe assay, BACULOSOMES
T3 construct: purchased Life Technologies
Experimental: as §4, §5

P-gp [1] = details: cited from earlier work
hOAT1-MDCK cells = assay: Cell viability assay (MTT) in hOAT1-MDCK cells; format: cell-based, canine
Experimental: as §1, §2, §3

P-gp [2] = target: T4, P-gp (Homo sapiens, UniProt P08183); assay: P-gp-mediated 3H-digoxin transepithelial transport in Caco-2 cell monolayers; format: cell-based; details: 10 µM pinocembrin, 0-120 min, compared with vehicle control
T4 construct: Caco-2 cell monolayers, which express both P-gp and BCRP; host or cells: Caco-2
T4 sequence (P08183 whole entry): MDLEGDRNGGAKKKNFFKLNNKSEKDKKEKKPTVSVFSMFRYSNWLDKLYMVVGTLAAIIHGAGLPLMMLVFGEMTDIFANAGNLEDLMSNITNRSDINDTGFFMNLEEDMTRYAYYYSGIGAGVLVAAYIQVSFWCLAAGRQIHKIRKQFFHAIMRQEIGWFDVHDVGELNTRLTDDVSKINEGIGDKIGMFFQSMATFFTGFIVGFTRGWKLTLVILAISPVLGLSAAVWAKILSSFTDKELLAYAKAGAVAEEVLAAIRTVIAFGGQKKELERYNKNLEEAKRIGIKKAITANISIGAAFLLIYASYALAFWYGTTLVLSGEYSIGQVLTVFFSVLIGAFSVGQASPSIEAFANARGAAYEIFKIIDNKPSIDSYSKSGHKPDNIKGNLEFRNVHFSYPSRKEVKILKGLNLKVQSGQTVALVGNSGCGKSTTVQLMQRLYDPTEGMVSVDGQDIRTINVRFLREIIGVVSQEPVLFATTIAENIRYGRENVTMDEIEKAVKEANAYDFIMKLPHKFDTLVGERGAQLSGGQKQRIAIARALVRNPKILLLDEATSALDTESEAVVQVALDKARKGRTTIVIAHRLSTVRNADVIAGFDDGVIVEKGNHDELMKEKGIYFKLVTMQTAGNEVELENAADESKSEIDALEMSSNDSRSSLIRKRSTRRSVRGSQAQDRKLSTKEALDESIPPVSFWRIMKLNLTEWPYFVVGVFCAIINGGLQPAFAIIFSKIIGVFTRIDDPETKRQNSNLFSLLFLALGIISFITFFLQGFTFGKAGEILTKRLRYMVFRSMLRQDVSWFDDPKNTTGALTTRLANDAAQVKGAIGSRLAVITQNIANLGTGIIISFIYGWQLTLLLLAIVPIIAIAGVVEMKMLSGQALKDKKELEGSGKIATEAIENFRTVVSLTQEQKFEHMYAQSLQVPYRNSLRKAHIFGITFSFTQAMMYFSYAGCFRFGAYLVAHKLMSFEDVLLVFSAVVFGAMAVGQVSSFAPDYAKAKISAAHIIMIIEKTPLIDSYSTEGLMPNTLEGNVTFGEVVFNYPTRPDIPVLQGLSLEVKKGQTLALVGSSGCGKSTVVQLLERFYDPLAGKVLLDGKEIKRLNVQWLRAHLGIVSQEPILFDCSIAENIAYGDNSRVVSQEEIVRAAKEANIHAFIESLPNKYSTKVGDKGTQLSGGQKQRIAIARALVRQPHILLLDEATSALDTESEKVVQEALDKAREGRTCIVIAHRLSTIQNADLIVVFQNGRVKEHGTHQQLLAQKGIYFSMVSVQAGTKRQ
Experimental: The interactions of pinocembrin with P-gp and BCRP were determined by the measurement of P-gp-mediated ^3H-digoxin transport and BCRP-mediated ^3H-estrone sulfate transport in Caco-2 cell monolayers, which express both P-gp and BCRP [20]. The apical sides of the Caco-2 cell monolayers were incubated with a buffer containing ^3H-digoxin alone, ^3H-digoxin plus 10 µM pinocembrin or ^3H-digoxin plus 100 µM verapamil (P-gp inhibitor).
P-gp- and BCRP-mediated transport were measured by the transepithelial transport of their substrates (^3H-digoxin for P-gp and ^3H-estrone sulfate for BCRP) in Caco-2 cell monolayers. […] Caco-2 cells were cultured on membrane inserts (Corning Inc., Corning, NY, USA) for 21 days. […] The basolateral side was replaced with a transport buffer. The sample from the basolateral side was transferred to vials containing a liquid scintillation cocktail to measure radioactivity by a β-counter (Packard BioScience, Wellesley, MA, USA).

T2 sequence (P11712 whole entry): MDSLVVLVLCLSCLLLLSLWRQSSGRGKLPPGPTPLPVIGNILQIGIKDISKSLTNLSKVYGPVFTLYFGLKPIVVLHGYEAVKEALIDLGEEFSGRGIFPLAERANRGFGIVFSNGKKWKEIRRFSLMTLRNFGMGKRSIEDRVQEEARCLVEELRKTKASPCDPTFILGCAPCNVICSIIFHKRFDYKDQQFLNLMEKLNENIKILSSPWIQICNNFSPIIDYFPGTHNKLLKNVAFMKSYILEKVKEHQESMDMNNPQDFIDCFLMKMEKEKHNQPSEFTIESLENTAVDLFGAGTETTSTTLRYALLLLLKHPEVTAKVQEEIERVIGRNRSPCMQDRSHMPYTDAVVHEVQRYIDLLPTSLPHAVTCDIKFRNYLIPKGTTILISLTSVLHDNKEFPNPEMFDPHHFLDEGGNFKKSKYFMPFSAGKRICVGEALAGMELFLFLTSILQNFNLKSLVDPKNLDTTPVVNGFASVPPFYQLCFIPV
T3 sequence (P20813 whole entry): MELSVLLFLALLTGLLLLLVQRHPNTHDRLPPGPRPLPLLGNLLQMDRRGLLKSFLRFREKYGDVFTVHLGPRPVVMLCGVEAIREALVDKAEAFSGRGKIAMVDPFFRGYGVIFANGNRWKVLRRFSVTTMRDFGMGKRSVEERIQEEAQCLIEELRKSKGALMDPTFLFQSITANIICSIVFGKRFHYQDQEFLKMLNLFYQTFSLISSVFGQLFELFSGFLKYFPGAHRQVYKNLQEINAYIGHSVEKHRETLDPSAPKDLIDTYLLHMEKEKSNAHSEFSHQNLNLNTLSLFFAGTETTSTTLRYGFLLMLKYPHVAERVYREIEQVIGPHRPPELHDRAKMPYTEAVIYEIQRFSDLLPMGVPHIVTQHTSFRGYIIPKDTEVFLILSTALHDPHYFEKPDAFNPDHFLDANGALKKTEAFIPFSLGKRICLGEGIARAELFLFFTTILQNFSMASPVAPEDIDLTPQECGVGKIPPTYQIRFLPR

## O=C1C[C@@H](c2ccccc2)Oc2cc(O)cc(O)c21 [pinocembrin]
CYP2D6
  effect on the activity of CYP2D6: inhibits the activities
hOAT3-MDCK cells
  cell viability: did not affect cell viability
hOAT1
  3H-PAH cellular accumulation: significantly decreased
CYP2C9
  IC50: 345 µM
CYP1A2
  mechanism of CYP1A2 inhibition: competitive
CYP1A2; concentrations of 1–5 µM
  effect on the activity of CYP1A2: shows an inhibitory effect
CYP2B6
  IC50: 44 µM
P-gp [1]
  effect on the P-gp in the blood–brain barrier (BBB): little effect
  effect on the function of P-gp: did not inhibit
hOAT1-MDCK cells; pinocembrin 1, 10 and 50 μM, compared to vehicle-treated cells
  cell viability: did not affect cell viability
hOAT1-MDCK cells; tenofovir plus pinocembrin, 48 h, compared with tenofovir-treated cells alone
  cell viability on co-treatment with tenofovir: considerably increased cell viability
P-gp [2]
  transport of 3H-digoxin from the apical to basolateral side: did not alter
